This passage reports IC50 results from patent publication US8415469B2, “Compounds and methods for kinase modulation, and indications therefor” (Plexxikon Inc., priority 2005, dated 2013).

pIC50: −log10 of the molar value. Read-outs that look alike come from different tables or passages of the source.

Format in all cases: biochemical
In one experiment the target is T1, Yes (Homo sapiens, UniProt P07947).
T1 construct: purchased Invitrogen (Carlsbad, Calif.), screening service
Kind of experiment: Z'-Lyte FRET kinase assay (Invitrogen), Yes. Particulars: read-out: IC50, activity toward kinase Yes. A digest of the protocol: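 Z′-Lyte FRET assay: kinase phosphorylates 2 μM peptide substrate at 10 μM ATP in 50 mM HEPES pH 7.5, 50 mM MgCl2, 5 mM EGTA, 0.05% BRIJ-35, 1% DMSO, 1 h at room temperature. Protease development 1 h; coumarin/fluorescein emission ratio gives phosphorylation extent over compound concentration curves.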

In a further experiment the target is T2, Kdr (Homo sapiens, UniProt P35968).
T2 construct: purchased Invitrogen (assay run by Invitrogen)
Nature of the experiment: Z'-Lyte FRET kinase assay (Invitrogen), Kdr. Conditions: read-out: IC50, activity toward kinase Kdr.

A further experiment concerns the target T3, Stk6 (Homo sapiens, UniProt O14965).
T3 construct: purchased Invitrogen (Carlsbad, Calif.), screening service
T3 sequence (O14965 1-403): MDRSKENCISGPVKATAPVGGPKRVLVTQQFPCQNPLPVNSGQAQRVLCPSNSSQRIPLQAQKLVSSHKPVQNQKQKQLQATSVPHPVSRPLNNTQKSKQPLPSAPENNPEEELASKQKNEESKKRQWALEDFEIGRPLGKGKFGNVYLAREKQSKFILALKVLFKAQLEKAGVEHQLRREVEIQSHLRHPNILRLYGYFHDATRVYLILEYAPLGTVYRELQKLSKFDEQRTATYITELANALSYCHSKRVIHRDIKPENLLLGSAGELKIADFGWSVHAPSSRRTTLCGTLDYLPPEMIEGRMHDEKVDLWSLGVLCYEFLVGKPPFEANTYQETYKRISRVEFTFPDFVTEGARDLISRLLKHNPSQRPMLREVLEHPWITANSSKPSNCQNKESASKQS
Nature of the experiment: Z'-Lyte FRET kinase assay (Invitrogen), Stk6. Conditions: read-out: IC50, activity toward kinase Stk6.

In another experiment the target is MAP4K4 (Homo sapiens, UniProt O95819). Kind of experiment: AlphaScreen kinase assay, MAP4K4. Particulars: read-out: IC50, activity toward kinase MAP4K4. (In Alpha technology, singlet oxygen from a donor bead excites a nearby acceptor bead.)
Chain of MAP4K4 (O95819 whole entry): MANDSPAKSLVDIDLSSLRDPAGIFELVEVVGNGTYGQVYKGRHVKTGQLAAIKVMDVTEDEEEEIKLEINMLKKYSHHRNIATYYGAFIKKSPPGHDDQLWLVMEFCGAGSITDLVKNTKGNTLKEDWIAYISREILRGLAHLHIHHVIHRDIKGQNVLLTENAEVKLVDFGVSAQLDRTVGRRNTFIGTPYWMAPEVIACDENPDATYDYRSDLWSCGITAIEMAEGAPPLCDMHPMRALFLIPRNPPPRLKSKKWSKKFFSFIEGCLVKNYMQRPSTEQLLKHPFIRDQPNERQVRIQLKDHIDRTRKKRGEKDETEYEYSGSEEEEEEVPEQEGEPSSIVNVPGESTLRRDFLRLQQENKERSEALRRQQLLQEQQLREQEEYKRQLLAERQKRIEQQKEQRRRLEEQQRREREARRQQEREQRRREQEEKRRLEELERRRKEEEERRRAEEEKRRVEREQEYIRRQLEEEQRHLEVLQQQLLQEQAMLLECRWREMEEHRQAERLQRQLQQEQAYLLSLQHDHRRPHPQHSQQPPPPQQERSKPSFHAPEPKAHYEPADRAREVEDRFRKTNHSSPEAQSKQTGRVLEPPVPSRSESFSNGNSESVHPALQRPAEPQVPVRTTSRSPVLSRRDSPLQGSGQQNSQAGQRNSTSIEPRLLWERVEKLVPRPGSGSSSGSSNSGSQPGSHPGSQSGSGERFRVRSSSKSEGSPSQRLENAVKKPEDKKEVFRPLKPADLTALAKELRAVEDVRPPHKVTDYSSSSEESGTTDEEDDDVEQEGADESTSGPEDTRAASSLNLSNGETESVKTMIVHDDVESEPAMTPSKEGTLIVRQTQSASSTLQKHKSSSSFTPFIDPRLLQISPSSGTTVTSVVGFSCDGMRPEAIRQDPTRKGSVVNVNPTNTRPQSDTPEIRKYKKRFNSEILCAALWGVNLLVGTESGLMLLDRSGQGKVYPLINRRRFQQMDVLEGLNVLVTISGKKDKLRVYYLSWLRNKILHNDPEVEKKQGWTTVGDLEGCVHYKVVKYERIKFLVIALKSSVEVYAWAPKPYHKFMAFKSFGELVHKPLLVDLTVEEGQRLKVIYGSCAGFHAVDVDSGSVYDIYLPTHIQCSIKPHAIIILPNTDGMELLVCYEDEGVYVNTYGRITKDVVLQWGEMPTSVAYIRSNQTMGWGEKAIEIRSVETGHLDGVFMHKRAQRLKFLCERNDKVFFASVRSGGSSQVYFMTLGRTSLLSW
The target in a further experiment is T4, B-Raf V600E (Homo sapiens, UniProt P15056, V600E).
T4 construct: P4254. pFastBacBD-CDC37 BRAF D437-K722-X, V600E; His6 with pFastBac HT leader (TEV site) (N); made in house; host or cells: Sf9 (baculovirus; chaperone CDC37 co-expressed)
T4 sequence (P15056 with tags, fused parts or gaps V600E): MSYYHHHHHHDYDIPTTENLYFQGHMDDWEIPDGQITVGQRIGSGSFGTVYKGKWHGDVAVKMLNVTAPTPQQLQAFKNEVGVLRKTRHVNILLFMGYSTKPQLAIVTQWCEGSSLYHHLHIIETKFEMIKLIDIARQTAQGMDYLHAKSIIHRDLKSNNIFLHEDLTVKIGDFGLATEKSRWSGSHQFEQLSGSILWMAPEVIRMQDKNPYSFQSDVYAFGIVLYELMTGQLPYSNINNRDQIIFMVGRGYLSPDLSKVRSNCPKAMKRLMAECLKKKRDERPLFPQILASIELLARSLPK
Kind of experiment: AlphaScreen kinase assay, B-Raf V600E. Conditions: read-out: IC50, activity toward kinase B-Raf V600E.

The next experiment addresses T5, FGFR1 (Homo sapiens, UniProt P11362, C488A/C584S).
T5 construct: P1351.pET N6 BI-PTP FGFR A458-E765-X C488A, C584S; made in house; host or cells: E. coli (PTP1B co-expressed)
Nature of the experiment: AlphaScreen kinase assay, FGFR1.

The target of the next experiment is T6, Fms (Homo sapiens, UniProt P07333).
T6 construct: purchased Upstate Biotechnology
T6 sequence (P07333 20-972): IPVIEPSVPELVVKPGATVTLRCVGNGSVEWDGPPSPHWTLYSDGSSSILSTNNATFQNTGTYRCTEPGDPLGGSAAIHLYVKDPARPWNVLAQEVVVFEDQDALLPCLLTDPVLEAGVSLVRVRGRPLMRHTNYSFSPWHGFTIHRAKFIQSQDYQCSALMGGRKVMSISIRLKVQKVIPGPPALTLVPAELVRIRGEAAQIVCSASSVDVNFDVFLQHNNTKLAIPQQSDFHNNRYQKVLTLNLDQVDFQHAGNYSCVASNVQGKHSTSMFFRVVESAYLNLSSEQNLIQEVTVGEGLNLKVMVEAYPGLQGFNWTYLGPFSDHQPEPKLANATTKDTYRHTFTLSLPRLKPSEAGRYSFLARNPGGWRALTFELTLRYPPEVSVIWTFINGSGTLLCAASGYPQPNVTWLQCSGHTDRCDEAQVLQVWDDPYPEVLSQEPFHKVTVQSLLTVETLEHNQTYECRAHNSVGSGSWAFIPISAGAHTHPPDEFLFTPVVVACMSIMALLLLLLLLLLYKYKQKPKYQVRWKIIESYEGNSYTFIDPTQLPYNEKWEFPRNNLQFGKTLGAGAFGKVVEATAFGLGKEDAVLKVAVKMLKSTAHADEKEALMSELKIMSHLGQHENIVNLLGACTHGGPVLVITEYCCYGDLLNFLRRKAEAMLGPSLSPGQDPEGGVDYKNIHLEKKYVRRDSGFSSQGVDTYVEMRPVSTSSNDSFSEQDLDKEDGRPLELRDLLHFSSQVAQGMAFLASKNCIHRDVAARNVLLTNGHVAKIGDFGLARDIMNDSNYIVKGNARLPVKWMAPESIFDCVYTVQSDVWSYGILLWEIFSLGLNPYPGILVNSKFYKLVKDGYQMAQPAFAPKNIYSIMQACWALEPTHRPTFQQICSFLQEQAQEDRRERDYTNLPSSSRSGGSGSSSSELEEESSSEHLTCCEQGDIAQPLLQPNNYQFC
Kind of experiment: AlphaScreen kinase assay, Fms. Conditions: read-out: IC50, activity toward kinase Fms.

The next experiment deals with T7, Flt1 (Homo sapiens, UniProt P17948).
T7 construct: P1826.pETN6 BI-PTP FLT1 M799-D1165-X WT; His6 (N); made in house; host or cells: E. coli (PTP1B co-expressed)
T7 sequence (P17948 with tags, fused parts or gaps): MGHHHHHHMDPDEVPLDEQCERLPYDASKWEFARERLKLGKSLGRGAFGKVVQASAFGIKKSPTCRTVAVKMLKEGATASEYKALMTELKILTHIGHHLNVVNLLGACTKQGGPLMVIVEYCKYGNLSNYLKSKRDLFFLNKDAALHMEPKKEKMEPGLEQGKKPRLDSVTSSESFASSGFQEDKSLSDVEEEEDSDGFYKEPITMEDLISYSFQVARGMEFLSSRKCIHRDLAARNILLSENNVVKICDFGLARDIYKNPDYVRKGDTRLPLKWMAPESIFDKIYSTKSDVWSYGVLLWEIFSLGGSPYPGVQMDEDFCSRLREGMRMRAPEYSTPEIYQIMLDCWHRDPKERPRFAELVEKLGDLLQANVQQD
Nature of the experiment: AlphaScreen kinase assay, Flt1. Conditions: read-out: IC50, activity toward kinase Flt1.

For the next experiment, the target named is T8, Pyk2 (Homo sapiens, UniProt Q14289).
T8 construct: purchased Upstate Biotechnology
T8 sequence (Q14289 whole entry): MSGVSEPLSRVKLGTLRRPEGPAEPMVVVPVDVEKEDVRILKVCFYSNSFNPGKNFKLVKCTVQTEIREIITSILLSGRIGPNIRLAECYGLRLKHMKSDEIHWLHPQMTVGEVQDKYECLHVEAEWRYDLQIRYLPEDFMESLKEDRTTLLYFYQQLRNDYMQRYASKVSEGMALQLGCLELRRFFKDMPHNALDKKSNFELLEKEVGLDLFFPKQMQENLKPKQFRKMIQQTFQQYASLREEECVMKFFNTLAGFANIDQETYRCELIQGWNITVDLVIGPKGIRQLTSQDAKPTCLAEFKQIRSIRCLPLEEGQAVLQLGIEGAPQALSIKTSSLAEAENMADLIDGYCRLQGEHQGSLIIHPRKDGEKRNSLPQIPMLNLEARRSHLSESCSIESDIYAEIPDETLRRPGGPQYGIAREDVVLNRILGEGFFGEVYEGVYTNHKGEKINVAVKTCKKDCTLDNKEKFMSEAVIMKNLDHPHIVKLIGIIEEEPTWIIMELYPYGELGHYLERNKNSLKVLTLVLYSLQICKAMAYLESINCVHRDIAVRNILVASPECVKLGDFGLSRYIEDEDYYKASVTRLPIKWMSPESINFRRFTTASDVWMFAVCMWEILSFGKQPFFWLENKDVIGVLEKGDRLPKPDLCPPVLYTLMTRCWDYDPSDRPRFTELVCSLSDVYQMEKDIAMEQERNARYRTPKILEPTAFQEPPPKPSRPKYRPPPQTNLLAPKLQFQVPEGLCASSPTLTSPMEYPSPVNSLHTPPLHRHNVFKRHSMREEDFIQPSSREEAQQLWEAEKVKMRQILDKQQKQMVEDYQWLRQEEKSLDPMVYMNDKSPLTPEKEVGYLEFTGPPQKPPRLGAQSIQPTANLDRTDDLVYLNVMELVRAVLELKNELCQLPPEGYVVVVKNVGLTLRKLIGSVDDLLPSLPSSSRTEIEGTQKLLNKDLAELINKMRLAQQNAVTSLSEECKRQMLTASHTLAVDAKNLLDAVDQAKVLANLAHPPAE
Kind of experiment: AlphaScreen kinase assay, Pyk2. Particulars: read-out: IC50, activity toward kinase Pyk2.

The target in a further experiment is T9, Kit (Homo sapiens, UniProt P10721).
T9 construct: P1332.N6 BI PTP KIT M552-K948-X COD; His6 (N); made in house; host or cells: E. coli (PTP1B co-expressed)
T9 sequence (P10721 with tags, fused parts or gaps): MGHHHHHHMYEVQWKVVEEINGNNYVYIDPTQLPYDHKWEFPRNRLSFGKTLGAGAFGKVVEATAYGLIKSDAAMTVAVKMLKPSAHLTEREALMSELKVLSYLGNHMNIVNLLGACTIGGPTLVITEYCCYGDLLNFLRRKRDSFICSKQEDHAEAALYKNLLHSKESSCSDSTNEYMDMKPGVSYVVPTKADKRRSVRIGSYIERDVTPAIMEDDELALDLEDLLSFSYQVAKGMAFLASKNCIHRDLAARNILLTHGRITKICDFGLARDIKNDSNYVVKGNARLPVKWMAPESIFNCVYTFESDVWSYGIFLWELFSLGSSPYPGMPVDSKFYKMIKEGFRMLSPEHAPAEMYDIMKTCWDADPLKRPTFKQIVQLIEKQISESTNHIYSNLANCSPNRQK
Nature of the experiment: AlphaScreen kinase assay, Kit. Particulars: read-out: IC50, activity toward kinase Kit.

For a further experiment, the target named is T10, Zap70 (Homo sapiens, UniProt P43403).
T10 construct: P1868.pFastBac1 ZAP70 D327-G606 HIS, WT; His7 (HHHHHHH) (C); made in house
T10 sequence (P43403 with tags, fused parts or gaps): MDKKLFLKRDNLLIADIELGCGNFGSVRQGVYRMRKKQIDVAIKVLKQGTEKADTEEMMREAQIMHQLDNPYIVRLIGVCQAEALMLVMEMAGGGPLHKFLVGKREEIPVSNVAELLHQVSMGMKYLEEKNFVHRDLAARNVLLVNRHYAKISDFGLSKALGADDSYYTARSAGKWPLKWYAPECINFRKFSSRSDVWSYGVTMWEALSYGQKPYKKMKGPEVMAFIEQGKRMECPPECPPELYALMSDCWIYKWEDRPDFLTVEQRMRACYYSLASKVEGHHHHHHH
Kind of experiment: AlphaScreen kinase assay, Zap70. Conditions: read-out: IC50, activity toward kinase Zap70. A digest of the protocol:
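Peptide phosphorylation detected by proximity: streptavidin donor beads bind biotinylated substrate, acceptor beads carry antibody to phosphorylated substrate, singlet oxygen transfer gives emission. Dose-response over 8 points (1:3 steps); stocks 20 mM in DMSO.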

The next experiment has as its target T11, Jnk3 (Homo sapiens, UniProt P53779).
T11 construct: purchased Upstate Biotechnology
Kind of experiment: AlphaScreen kinase assay, Jnk3. Conditions: read-out: IC50, activity toward kinase Jnk3.

The target of the next experiment is T12, Jnk1 (Homo sapiens, UniProt P45983).
T12 construct: purchased Upstate Biotechnology
Nature of the experiment: AlphaScreen kinase assay, Jnk1. Conditions: read-out: IC50, activity toward kinase Jnk1.

The next experiment has as its target T13, c-Raf-1 (Homo sapiens, UniProt P04049).
T13 construct: purchased Upstate Biotechnology
Nature of the experiment: AlphaScreen kinase assay, c-Raf-1. Particulars: read-out: IC50, activity toward kinase c-Raf-1.

The next experiment concerns the target T14, Src (Homo sapiens, UniProt P12931).
T14 construct: P1144. pET-N6 BI-PTP SRC V86-L536-X; made in house
Kind of experiment: AlphaScreen kinase assay, Src. Conditions: read-out: IC50, activity toward kinase Src.

The target of a further experiment is T15, B-Raf (Homo sapiens, UniProt P15056).
T15 construct: purchased Upstate Biotechnology
Nature of the experiment: AlphaScreen kinase assay, B-Raf. Particulars: read-out: IC50, activity toward kinase B-Raf.

A further experiment addresses T16, Fak (Homo sapiens, UniProt Q05397).
T16 construct: P1358.pFastBacHtb FAK S411-Q686-X; His6 with pFastBacHTb leader (TEV site) (N); made in house; host or cells: Sf9 (baculovirus)
Nature of the experiment: AlphaScreen kinase assay, Fak. Particulars: read-out: IC50, activity toward kinase Fak.

Another experiment addresses Akt3 (Homo sapiens, UniProt Q9Y243). Nature of the experiment: AlphaScreen kinase assay, Akt3. Conditions: read-out: IC50, activity toward kinase Akt3. The source says: AlphaScreen assay was used to screen additional kinases. The assay is similarly dependent on the phosphorylation of a peptide substrate. In this assay, an antibody that recognizes phosphorylated substrate is bound to an acceptor bead. The peptide substrate is attached to biotin, which binds to a donor head that contains streptavidin. Thus phosphorylated substrate is bound by antibody and streptavidin, bringing the donor and acceptor heads into close proximity when kinase is not inhibited. The donor produces singlet oxygen which results in emission from the acceptor when they are in close proximity. Conversely, when kinase is inhibited, the donor and acceptor beads are not associated and the emission from the acceptor is reduced.
AlphaScreen assays were done using compounds dissolved in DMSO to a concentration of 20 mM. The compounds were diluted accordingly to the desired final concentrations in each sample well, using 1:3 serial dilution for a total of 8 concentration points.

Where [1] appears, read: read-out: IC50, activity toward kinase FGFR.

Chain of Akt3 (Q9Y243 whole entry): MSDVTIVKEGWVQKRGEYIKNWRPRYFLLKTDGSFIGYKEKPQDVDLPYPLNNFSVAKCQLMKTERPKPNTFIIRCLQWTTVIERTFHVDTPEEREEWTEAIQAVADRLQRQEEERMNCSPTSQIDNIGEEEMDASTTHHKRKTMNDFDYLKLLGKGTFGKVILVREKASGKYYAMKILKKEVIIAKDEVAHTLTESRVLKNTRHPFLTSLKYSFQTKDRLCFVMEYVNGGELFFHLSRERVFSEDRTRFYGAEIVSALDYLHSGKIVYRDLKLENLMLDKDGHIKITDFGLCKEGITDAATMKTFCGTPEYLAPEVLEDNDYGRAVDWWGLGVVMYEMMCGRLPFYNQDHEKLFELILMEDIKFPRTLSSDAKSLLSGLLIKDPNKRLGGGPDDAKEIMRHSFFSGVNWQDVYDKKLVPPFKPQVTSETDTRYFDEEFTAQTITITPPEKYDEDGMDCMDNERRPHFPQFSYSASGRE
T5 sequence (P11362 458-765 C488A/C584S): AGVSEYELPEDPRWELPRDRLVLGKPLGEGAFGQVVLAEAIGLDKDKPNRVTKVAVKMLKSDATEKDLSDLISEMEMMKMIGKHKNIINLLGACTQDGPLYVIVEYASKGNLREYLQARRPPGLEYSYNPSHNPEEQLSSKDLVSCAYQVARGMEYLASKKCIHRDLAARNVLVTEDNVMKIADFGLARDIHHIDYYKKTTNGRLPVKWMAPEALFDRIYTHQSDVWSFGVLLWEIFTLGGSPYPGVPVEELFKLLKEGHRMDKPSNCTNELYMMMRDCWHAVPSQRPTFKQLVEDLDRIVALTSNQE
T16 sequence (Q05397 411-686): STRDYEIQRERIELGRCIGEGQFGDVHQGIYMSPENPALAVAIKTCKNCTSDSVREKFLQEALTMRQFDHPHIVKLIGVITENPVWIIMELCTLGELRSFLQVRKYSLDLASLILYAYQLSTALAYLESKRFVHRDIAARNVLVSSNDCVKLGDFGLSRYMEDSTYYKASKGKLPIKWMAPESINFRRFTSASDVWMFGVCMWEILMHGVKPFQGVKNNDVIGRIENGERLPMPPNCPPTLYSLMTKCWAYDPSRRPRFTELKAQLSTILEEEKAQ
Excerpt for Stk6: For example, direct radiometric, indirect FRET or AlphaScreen assays may be used to assess the level of phosphorylation of a substrate in the presence of test compounds in order to determine the inhibitory affect of the compound on the kinase. […] For these assays, compounds of the invention were screened by Invitrogen using Z′-Lyte™ kinase assay.
Briefly, the Invitrogen kinase assay involves use of a specific peptide substrate optimized for each kinase, containing a fluorophore at each end that make up the FRET pair. The peptide sensitivity to proteolytic cleavage depends on phosphorylation of the peptide. Non-phosphorylated peptide is cleaved by a protease while peptide phosphorylated by the kinase is not cleaved. Cleavage of the peptide disrupts the FRET between the donor (coumarin) and acceptor (fluorescein) fluorophores, resulting in an increase in the ratio of donor emission to acceptor emission. The emission ratio of coumarin to fluorescein is used to assess the reaction progress. […] Thus, the assay involves a kinase reaction in the presence of varying concentrations of a given compound, a development reaction with site specific protease, and detection of the fluorescent emission ratio of coumarin and fluorscein. […] Reaction conditions for each kinase are determined to provide optimal reaction times, incubation temperature, kinase and ATP concentrations. Test samples are made up in 1× kinase buffer (50 mM HEPES pH 7.5, 50 mM MgCl2, 5 mM EGTA, 0.05% BRIJ-35) and compound at desired concentration prepared in DMSO such that the final DMSO is 1%. […] All kinase except for MAP2K1 were at 10 μM ATP in the kinase reaction, while MAP2K1 was at 100 μM. Samples are mixed and the kinase reaction is incubated 1 hour at room temperature, after which 5 μl of development solution is added and mixed. After incubation for another 1 hour at room temperature, 5 μl of stop reagent is added to each sample and mixed. The fluorescence signals are measured to determine the emission ratio.

Take `O=C(c1ccc(NCC2CC2)nc1)c1c[nH]c2ncccc12` [Compound P-0202]: the pIC50 on Yes, on Kdr, on Stk6 and at MAP4K4 was at least 5.00 throughout.

On to `OCCOc1cccc(Cc2c[nH]c3ncc(-c4ccsc4)cc23)c1` [Compound P-0287], for which the pIC50 at B-Raf V600E, on FGFR1 (setting [1]), at Fms, on Kdr, at Flt1 and on Pyk2 was at least 5.00 in each case. In addition, the negative logarithm of the IC50 (pIC50) at Kit, at Stk6 and at MAP4K4 was at least 5.00 each time.

`c1ccc2c(Cc3c[nH]c4ncccc34)cccc2c1` [Compound P-0442]: the pIC50 on FGFR1 (setting [1]), on Zap70 and at MAP4K4 was at least 5.00 in each case.

In the case of `CCCS(=O)(=O)Nc1ccc(Cl)c(C(=O)c2c[nH]c3ncc(-c4cccnc4)cc23)c1F` [Compound P-0753, Propane-1-sulfonic acid [4-chloro-2-fluoro-3-(5-pyridin-3-yl-1H-pyrrolo[2,3-b]pyridine-3-carbonyl)-phenyl]-amide], the pIC50 on Jnk3, against FGFR1, on Fms, on Jnk1, on c-Raf-1 and at Pyk2 was at least 5.00 each time. Besides, the pIC50 on Kit, on Src and at MAP4K4 was at least 5.00 throughout.

Turning to `CC(C)S(=O)(=O)Nc1ccc(F)c(Cc2c[nH]c3ncc(-c4cccnc4)cc23)c1F` [Compound P-0851], the pIC50 at B-Raf V600E, at Jnk3, on FGFR1 (setting [1]), on Fms, on Jnk1 and at c-Raf-1 was at least 5.00 each time. The pIC50 at Pyk2, at Kit, at B-Raf, at Src, at MAP4K4 and on Fak was at least 5.00 each time.

In the case of `COc1ccc(Nc2ccnc3[nH]ccc23)cc1Cl` [Compound P-0936], the pIC50 – broadly, the IC50 on a negative log10 scale, so that one unit is a factor of ten – on Akt3 is at least 5.00.

For the compound `c1cc(Nc2ccc3[nH]ccc3c2)c2cc[nH]c2n1` [Compound P-0940], the pIC50 on Akt3 is at least 5.00.

Take `CSc1ccc(Nc2ccnc3[nH]ccc23)cc1` [Compound P-0990]: the pIC50 on Akt3 was at least 5.00.

Consider `Cc1ccc(Nc2ccnc3[nH]ccc23)cc1[N+](=O)[O-]` [Compound P-0995], for which the pIC50 at Akt3 was at least 5.00.

As to `c1cnc2ccc(Nc3cnc4[nH]ccc4c3)cc2c1` [Compound P-1034], at Akt3, the pIC50 was at least 5.00.

Regarding `CC(C)c1ccc(Nc2cnc3[nH]ccc3c2)cc1` [Compound P-1039], at Akt3, the negative-log IC50 (pIC50) is at least 5.00.

On to `c1cc2cc(Nc3ccc4ncsc4c3)cnc2[nH]1` [Compound P-1040], for which the pIC50 on Akt3 was at least 5.00.

For `CCCc1ccc(Nc2cnc3[nH]ccc3c2)cc1` [Compound P-1043], the pIC50 at B-Raf V600E and at Akt3 was at least 5.00 each time.

In the case of `Cc1cccc(Nc2ccnc3[nH]ccc23)c1` [Compound P-1060], the pIC50 at Akt3 was at least 5.00.

`c1cc(Nc2ccc3c(c2)OCO3)c2cc[nH]c2n1` [Compound P-1062]: on Akt3, the pIC50 is at least 5.00.

`COc1ccc(Nc2cnc3[nH]ccc3c2)cc1` [Compound P-1095]: on Akt3, the negative-log IC50 (pIC50) is at least 5.00.

Turning to `CCOC(c1ccc(N(Cc2ccc(Cl)cc2)C(=O)OC(C)(C)C)nc1)c1c[nH]c2ncccc12` (centres unmarked) [Compound P-1139], the pIC50 at B-Raf V600E and on Akt3 was at least 5.00 each time.

On to `CSc1cccc(Nc2cnc3[nH]ccc3c2)c1` [Compound P-1150], for which the pIC50 on Akt3 is at least 5.00.

For the compound `COc1ccc(Nc2ccnc3[nH]ccc23)cc1` [Compound P-1155], the pIC50 at Akt3 was at least 5.00.

Consider `CSc1ccc(Nc2cnc3[nH]ccc3c2)cc1` [Compound P-1158], for which the pIC50 on Akt3 is at least 5.00.

With `Oc1ccc(Nc2ccnc3[nH]ccc23)cc1` [Compound P-1172], the pIC50 at Akt3 was at least 5.00.

Consider `c1ccc(Nc2ccnc3[nH]ccc23)cc1` [Compound P-1224], for which the pIC50 on Akt3 was at least 5.00.
